Experiment: Tested for the ability to block NADH dehydrogenase in a preparation of submitochondrial particles obtained from blow fly flight muscle
Format: tissue-based, Calliphoridae, Muscle tissue

-Log IC50	Structure (SMILES)
6.82	C=C(C)[C@H]1Cc2c(ccc(Cn3c(C)nc4ccccc43)c2OC)O1
6.6	C=C(C)[C@H]1Cc2c(ccc(C(=O)n3c(C)nc4ccccc43)c2OC)O1
7.3	C=C(C)[C@H]1Cc2cc(Cn3c(C)nc4ccccc43)ccc2O1

Continued, compound first:

Structure (SMILES)	-Log IC50
C=C(C)[C@H]1Cc2cc(C(=O)n3c(C)nc4ccccc43)ccc2O1	7.82
COc1ccc(CC2NCCc3cc4c(cc32)C[C@H](C(C)CSc2ccccc2)O4)cc1OC (some centres not stated)	7.9
C=C(C)[C@H]1Cc2cc3c(cc2O1)CCNC3Cc1ccc(OC)c(OC)c1 (some centres not stated)	6.76
C=C(C)[C@H]1Cc2c(ccc3c2O[C@@H]2COc4cc(OC)c(OC)cc4[C@@H]2C3=O)O1 [ROTENONE]	8.7
